Measured values as given in article PMC9447362.
Like-named read-outs stand apart in the source and are kept apart here.

What was measured:
[1] = system: P4 G4; type: cell-based, SARS-CoV-2; conditions: 10 μM TMPyP4 or 2.5 μM PDP
[2] = system: RNA with P4 G4; test: Cell-based RNA replication assays with SARS-CoV-2 RdRp (nsp12, nsp7, nsp8) in HEK293T cells, qRT-PCR; conditions: compared with P4-Mut, dose-dependent
Description: Cell-based RNA replication assay system was applied[43]–[45]. The plasmids nsp12, nsp7 and nsp8 were used to express codon-optimized Flag-nsp12, Flag-nsp7 and Flag-nsp8, respectively, all of which contain a Flag tag at the C-terminus. To generate the SARS-CoV-2 transcripts with P4 G4 site for RNA replication assays, 5’ untranslated region (UTR)-P4 G4 -3’ UTR was first synthesized, then inserted into the pGEM-T esay vector. And the SARS-CoV-2 RNA with P4 G4 site was produced using T7 RNA polymerases from a standard in vitro transcription kit.
HEK293T cells were transfected with the RNA with P4 G4 site, nsp12, nsp7, and nsp8 plasmids at the ratio of 1:10:30:30. At 12 h post transfection, cells were re-seeded in 24-well plates (4 × 10^4/well) and treated with PDP or TMPyP4. After 48 h incubation, cells were collected and measured for RNA levels by qRT-PCR assays.

[3] = system: P4 G4; test: Protein expression from pCAG-Flag vector with P4-WT or P4-Mut in HeLa and HEK293T cells (western blotting); type: cell-based, SARS-CoV-2; conditions: concentration-dependent
[4] = system: Vero E6 cells; conditions: African green monkey
[5] = system: SARS-CoV-2; test: microbe, parasite or virus in culture; type: cell-based; conditions: for EC50: read-out: EC50 (half-maximal effective doses), antiviral; for EC90: read-out: EC90 (90% maximal effective doses), antiviral; for protein levels of nucleoprotein, Vero E6 cells: western blotting
[6] = in vitro; conditions: African green monkey
[7] = system: P4 G4 (P4-WT RNA); test: CD spectra and CD melting of P4-WT with G4-specific ligands; type: binding, SARS-CoV-2
Procedure: For CD spectra and CD melting experiments, the DNA or RNA oligonucleotide samples pre-heated at 95 °C for 10 min were slowly cooled to room temperature, and then were incubated at 4 °C for 24 h. The samples were detected by JASCO J-810 spectropolarimeter equipped with a temperature-controlled water bath. In CD melting experiments, versus temperatures were collected at a heating rate of 1 °C/min.

[8] = system: P4 G4; test: In vitro translation (IVT) assays; type: biochemical, SARS-CoV-2
[9] = system: Vero E6 cells; test: Cell viability, SRB assays; conditions: Vero E6 cells, SRB assays
[10] = Cell viability, SRB assays; conditions: African green monkey
[11] = system: SARS-CoV-2; test: In vivo antiviral studies in SARS-CoV-2-infected Syrian hamsters
Procedure: The in vivo antiviral studies were carried out in an ABSL3 facility in Changchun
Veterinary Research Institute, Chinese Academy of Agricultural Sciences. All animal
studies were performed in strict accordance with the guidelines set by the Chinese
Regulations of Laboratory Animals and Laboratory Animal-Requirements of
Environment and Housing Facilities. All animals used in this study were chosen
antiviral in SARS-CoV-2 infection. First, we use a model of Syrian hamsters; and
second, we used a model of human angiotensin-converting enzyme 2 (hACE2)-KI/IOZ
10) or saline (n = 5) 1 h prior to infection. Then the hamsters were anesthetized and
infected intranasally with 105 TCID50 of SARS-CoV-2. For the low challenge dose
For the high challenge dose
The conditions of hamsters
including body weight were monitored daily until sacrifice. 3 days post infection (dpi),
the hamsters were humanely euthanized. The nasal wash, nasal tissues and lung tissues
were harvested for viral titration and pathological examination. Briefly, the nasal
tissues and lung tissues were weighed, and 1 gram of each tissue was placed into 1
mL of PBS containing 100 U/mL penicillin, making 10% weight/volume
homogenates. The tissue samples were homogenized by Tissue Lyser (QIAGEN,
Germany) and centrifuged at 8,000 rpm. The supernatants were then collected and
inoculated into Vero E6 cells, and viral RNA copy numbers and viral titration were
determined by qRT-PCR and TCID50, respectively. Meanwhile, the lungs were fixed
in formalin, and the fixed tissues were embedded in paraffin and stained with H&E
for pathological examination.
therapeutic treatment in vivo, the hamsters were pre-infected with the virus (105
intraperitoneal, i.p., 15 mg/kg)) 1 h prior to infection. Then the hamsters were
anesthetized and infected intranasally with 105 TCID50 of SARS-CoV-2. The conditions
of hamsters including body weight were monitored daily until sacrifice. 3 dpi, the
hamsters were humanely euthanized. The nasal wash, nasal tissues and lung tissues
were harvested for viral titration and pathological examination.
Lung histological analysis
Lung histological analysis was examined by an experienced pathologist. H&E stained
sections of lung from hamsters and mice were examined by implementing a semi
quantitative, 5 point grading scheme (0-within normal limits, 1-mild, 2-moderate,

[12] = system: SARS-CoV-2; type: cell-based, SARS-CoV-2 (BetaCoV/Beijing/IME-BJ05-2020); conditions: for protein levels of nucleoprotein, Calu-3 cells: western blotting
[13] = system: P6 G4; type: cell-based, SARS-CoV-2; conditions: 10 μM, HEK293T cells
[14] = system: P2 G4; type: cell-based, SARS-CoV-2; conditions: 10 μM, HEK293T cells
[15] = 30 mg/kg i.n. once daily for 7 consecutive days
[16] = system: P3 G4; type: cell-based, SARS-CoV-2; conditions: 10 μM, HEK293T cells
[17] = hamster plasma, 30 mg/kg i.n., single dose
[18] = cited from earlier work
[19] = system: SARS-CoV-2; conditions: mouse, in vivo
[20] = system: P1; type: cell-based, SARS-CoV-2; conditions: 10 μM, HEK293T cells
[21] = system: P14 G4; test: RNA replication assay, RNA with P14 G4 in HEK293T cells; type: cell-based, SARS-CoV-2
[22] = system: P13 G4; test: RNA replication assay, RNA with P13 G4 in HEK293T cells; type: cell-based, SARS-CoV-2
[23] = Severe acute respiratory syndrome coronavirus 2, Vero C1008, Vero E6 cells, 10^3 TCID50 virus/mL, 72 h post infection, viral RNA copies/mL
[24] = dose-dependent, 72 h post infection
[25] = hamster, 15 mg/kg i.p., day 3 after infection

NCCOc1cc(C(=O)Nc2cc(OCCN3CCCC3)c3ccccc3n2)nc(C(=O)Nc2cc(OCCN3CCCC3)c3ccccc3n2)c1 [PDP]
P4-WT EGFP fluorescence intensity [1]: inhibited the P4-WT EGFP fluorescence intensity | P4-Mut EGFP fluorescence intensity [1]: not P4-Mut | replication of P4-WT RNA [2]: significantly inhibit the replication of P4-WT | protein levels of P4-WT [3]: decreased the protein levels of P4-WT | CC10 (10% cytotoxic concentration) [4]: 2.84 µM | SI (selectivity index) [5]: 7.78 | EC50 [5, 23]: 0.63 µM | EC90 [5, 23]: > 2 µM | viral RNA copies and viral titers in Vero E6 cells [5, 24]: significantly reduced viral RNA copies and viral titers | CC50 [6]: 4.9 µM | effect on the thermal stability of P4 G4 [7]: significantly enhanced the thermal stability | IVT of P4-WT ([8]; P4-WT): inhibited the IVT of P4-WT

CCC(CC)COC(=O)[C@H](C)N[P@](=O)(OC[C@H]1O[C@@](C#N)(c2ccc3c(N)ncnn23)[C@H](O)[C@@H]1O)Oc1ccccc1 [remdesivir]
maximal viral titers reduction in the culture supernatant of Vero E6 cell ([5]; 72 h post infection, TCID50): ~ 3 log10 | maximal viral RNA copies reduction in the Vero E6 cell culture supernatant ([5]; 72 h post infection, qRT-PCR): ~ 4 log10 | maximal viral RNA copies reduction in the Vero E6 cell lysate ([5]; 72 h post infection, qRT-PCR): 3 log10 | EC50 [5, 23]: 1.33 µM | EC90 [5, 23]: 2.42 µM | SI (selectivity index) ([5]; Vero E6 cells, CC50/EC50): > 75.19 | viral RNA copies and viral titers in Vero E6 cells [5, 24]: significantly reduced viral RNA copies and viral titers | CC10 (10% cytotoxic concentration) [9]: 1.04 µM | CC50 [10]: > 100 µM | maximal viral RNA copies reduction in the nasal wash, nasal turbinate and lung tissues [11, 25]: 1 log10 | viral titers reduction in the nasal wash, nasal turbinate and lung tissues [11, 25]: ~ 1.5 log10

C[n+]1ccccc1-c1c2nc(c(-c3cccc[n+]3C)c3ccc([nH]3)c(-c3cccc[n+]3C)c3ccc([nH]3)c(-c3cccc[n+]3C)c3nc1C=C3)C=C2 [TMPyP2]
P4-WT EGFP fluorescence intensity [1]: no effects | replication of P4-WT RNA [2]: no effects | protein levels of P4-WT [3]: no effects | protein levels of nucleoprotein, Vero E6 cells ([5]; 100 μM): not TMPyP2 | protein levels of nucleoprotein, Calu-3 cells ([12]; 100 μM): not TMPyP2 | effect on the thermal stability of P4 G4 [7]: no effects on the thermal stability

C[n+]1ccc(-c2c3nc(c(-c4cc[n+](C)cc4)c4ccc([nH]4)c(-c4cc[n+](C)cc4)c4nc(c(-c5cc[n+](C)cc5)c5ccc2[nH]5)C=C4)C=C3)cc1 [TMPyP4, 5,10,15,20-tetrakis-(N-methyl-4-pyridyl)porphine]
EGFP expression, P6-EGFP [13]: inhibited EGFP expression | EGFP expression, P2-EGFP [14]: inhibited EGFP expression | P4-WT EGFP fluorescence intensity [1]: inhibited the P4-WT EGFP fluorescence intensity | P4-Mut EGFP fluorescence intensity [1]: not P4-Mut | replication of P4-WT RNA [2]: significantly inhibit the replication of P4-WT | toxicity in hamsters [15]: no noticeable toxicity in the hamsters | toxicity in the lung tissues of hamsters [15]: no noticeable toxicity in the lung tissues of hamsters | EGFP expression, P3-EGFP [16]: inhibited EGFP expression | Cmax [17]: 17.88 µg/mL | area under the curve (AUC) [17]: 167.32 h⋅μg/mL | half-life (T1/2) [17]: 6.36 h | toxicity in the animals for short-term treatment [18]: no noticeable toxicity | protein levels of P4-WT [3]: decreased the protein levels of P4-WT | SI (selectivity index) [5]: > 112.74 | antiviral activity of TMPyP4 after pre-transfection of ASOs targeting viral G4s [5]: significantly inhibited by ASO targeting viral G4s | maximal viral RNA copies reduction in the Vero E6 cell culture supernatant [5]: ~ 7 log10 | maximal viral RNA copies reduction in the Vero E6 cell lysate [5]: ~ 6 log10 | maximal viral titers reduction in the culture supernatant of Vero E6 cell [5]: ~ 6 log10 | viral RNA copies and viral titers in Vero E6 cells [5]: significantly reduced viral RNA copies and viral titers | viral loads in Vero E6 cells pre-infected with SARS-CoV-2 [5]: significantly decreased the viral loads | protein levels of nucleoprotein, Vero E6 cells ([5]; 100 μM): significantly suppress the protein levels of nucleoprotein | time-of-addition: stage of action ([5]; Vero E6 cells, 100 μM): functioned at a stage post SARS-CoV-2 entry | antiviral synergy with remdesivir in vitro ([5]; combination of TMPyP4 and remdesivir): did not exhibit antiviral synergy | EC50 [5]: 8.87 µM | EC90 [5]: 13.2 µM | CC10 (10% cytotoxic concentration) [9]: 727.7 µM | CC50 ([9]; read-out: CC50 (half-cytotoxic concentration)): > 1000 µM | viral loads in the nasal turbinate and lung tissues [19]: significantly decreased the viral loads in the nasal turbinate and lung tissues | protein levels of nucleoprotein, Calu-3 cells ([12]; 100 μM): significantly suppress the protein levels of nucleoprotein | mRNA expression of pro-inflammatory cytokines and chemokines ([12]; Calu-3 cells, 100 μM, qRT-PCR): decrease the mRNA expression of pro-inflammatory cytokines and chemokines | virus infection in Calu-3 cells ([12]; human lung epithelial Calu-3 cells): inhibited virus infection efficiently | EGFP expression, P1-EGFP [20]: not P1 | RNA replication, RNA with P14 G4 [21]: suppressed RNA replication | antiviral synergy with remdesivir in hamsters ([11]; TMPyP4 15 mg/kg i.n. combined with remdesivir 15 mg/kg i.p.): did not exhibit antiviral synergy with remdesivir in hamsters | decrease of mean viral loads (viral RNA copies/mL and TCID50/mL) in nasal wash, nasal turbinate and lung tissues ([11]; hamster, in vivo): 2–4 log10 | lung damage (histopathology) ([11]; hamster, in vivo): significantly ameliorate lung damage | mRNA expression of inflammatory-associated genes in the lungs ([11]; hamster, in vivo): reduced mRNA expression of inflammatory-associated genes in the lungs | maximal viral RNA copies reduction in the nasal wash, nasal turbinate and lung tissues ([11]; hamster, in vivo, 15 mg/kg): ~ 3 log10 | viral titers reduction in the nasal wash, nasal turbinate and lung tissues ([11]; hamster, in vivo, 15 mg/kg): ~ 3.5 log10 | lung damage, therapeutic treatment ([11]; hamster, in vivo, 30 mg/kg): could ameliorate lung damage | viral loads in nasal wash, nasal turbinate and lung tissues, therapeutic treatment ([11]; hamster, in vivo, 30 mg/kg): significantly decreased the viral loads | RNA replication, RNA with P13 G4 [22]: suppressed RNA replication | effect on the thermal stability of P4 G4 [7]: significantly enhanced the thermal stability | IVT of P4-WT [8]: inhibited the IVT of P4-WT
